These results are taken from patent US6057359A, “Spontaneously dispersible concentrates comprising esters of baccatin-III compounds having antitumor and antiviral activity” (Marigen S.A., priority 1997, dated 2000).

The subject of data set [1] is Py6 cells (Virus transformed 3T3 mouse-fibroblasts). In words: Test of cell toxicity / cytotoxicity of MARIGENOL concentrates on Py6 cells (plaque assay, serial dilution). Format: cell-based. Conditions: for in dilution active up to 1: (microemulsion ME 1:100): dilution of ME 1:100, given in Mio. Here is the method: A biological assay system using microtiter plates and serial dilutions has been developed. Batches of 10^4 tumour cells per ml were set up in culture medium RPMI 1640 and inactivated with 10% of fetal calf serum (GIBCO); they are spread at a density low enough to enable them to grow during the assay, in non-confluent monolayers. Samples are added after 6 to 24 hours, with 100 μl per row, to which 100 μl of medium are added in the first well. Half of this mixture is withdrawn, transferred into the next well and again treated with 100 μl of medium, etc.
[…] They are then stained and fixed using 0.1% crystal violet (Fluka, Buchs) in a solution of 70% of methanol, 1% of formaldehyde and 29% of water. The samples are evaluated under the microscope, magnification 300×. The greatest cytotoxic dilution is determined. The samples can also be evaluated quantitatively by means of scanning and absorption measurement in a spectrophotometer.
N.B.: On the subject of the eternalized Py6-cells cf.: "Biochemistry", Coordinating Editor Geoffrey L. Zubay, Addison-Wesley Publishing Company, 1983, p.1079.

Data set [2] deals with LEUKEMIA DAUDI-LINE. In words: Vitality/proliferation test (Tritium), leukemia Daudi-line. The format is cell-based, human. Conditions: controls 23'090 cpm. From the text:
(§1) 4.0 Comparative assays with human tumor cell lines
(§2) VITALITY TEST/1%-MARIGENOL-CONCENTRATE
(§3) 1 × 10^4 cells per well
(§4) Proliferation test (Tritium: 1 μCi/well H^+)

Data set [3] concerns LEUKEMIA K 562. In words: Vitality/proliferation test (Tritium), leukemia K 562. Format: cell-based, human. Conditions: controls 50'037 cpm.
Text: as §1, §2, §3, §4

For data set [4], the system named is HIV isolates from patients (strains 21/4 and 4/5). As to the kind of experiment: Effect on HIV infectivity, residual HIV titre (direct antiviral efficacy). Format: cell-based. Here is the method: Aliquote amounts of two HIV isolates from patients (strains 21/4 and 4/5) resuspended in complete RPMI medium at a titre of 300 CCID50 /ml were incubated during 3 hours, +4° C. with MARIGENOL®-concentrate, in the form of an aqueous microemulsion, at concentrations ranging from 10^-2 to 10^-5 in complete medium, as well as with ("empty") carrier concentrate and with medium alone as controls.
After pre-incubation, residual HIV titre was assessed by the CCID50 method (Cell-culture infecting dose 50%). Briefly, serial twofold dilutions were prepared from each of the six virus suspensions, and 200 μl of each dilution were incubated for 90 minutes with MT-4 cell pellets prepared as stated before (see 7.1). At the end of incubation, pellets were brought to initial cell concentration by adding appropriate amounts of complete RPMI medium to each tube, whose content was then distributed into 8 wells of a flat-bottom microtitre plate in 200 μl volumes, each vertical row coresponding to a dilution. After 5 days of incubation, cell viability was assessed by the MTT test as stated above, and the HIV titre was expressed as the reciprocal of that dilution which infects 4 out of 8 wells (50%) in a row. A well was considered infected when its O.D. readout at 550 nm was lower than the average readout of 8 control wells minus 2.8 times the standard error of the mean (lower 95% confidence limit).

Data set [5] has as its system VERO cells. As to the kind of experiment: Cell lysis in VERO cell layers. Format: cell-based, African green monkey. Conditions: dilution 1:1'000; plaque reduction table. Here is the method: (§5) The antiviral/virucidal efficacy against HSV of an aqueous microemulsion prepared with appropriate MARIGENOL®-concentrates was assessed on a confluent monolayer culture of VERO cells (i.e. "African green monkey kidney cells"). The host cells were pretreated during 3 h at 4° C. with an inventive microemulsion or with culture medium alone and then infected with HSV at a constant dose of 10^4 plaque forming units (PFU). After virus absorption during 1 h, and subsequent addition of 2% methylcellulose in order to limit virus spreading, cells were cultured in MEM medium+2% foetal calf serum for 48 h, then fixed and stained with 1% crystal violet in methanol. The reduction of viral titre was expressed as percent reduction of plaques of lysis observed in pre-treated cells, compared to controls.

For data set [6], the system named is Herpes-Virus (Herpes Simplex, HSV). In words: Antiviral/virucidal efficacy against HSV, plaque reduction in VERO cells. Format: cell-based. Conditions: compared to simple medium, 2880 min. How it is done:
as §5
Infection was also detected by IFA at 24 h after inoculation, using a Mab specific for a glycoprotein common to HSV-1/HSV-2 (clone FQ 12, Argene Biosoft, BIOLINE, Torino).
The following test substances were assessed as concentrates in aqueous dilution (starting with a microemulsion 1:100): […]

`CCCCCCCCCCCCCCCC(=O)Oc1cc(OC(=O)CCCCCCCCCCCCCCC)c2c(=O)cc(-c3ccccc3)oc2c1` [CHRYSIN-DI-PALMITATE]: the “in dilution active up to 1: (calculated on active substance content, A.S.)” value is 12.8 Mio in data set [1] (24 h exposure), 51.2 Mio in data set [1] (48 h exposure) and 51.2 Mio in data set [1] (72 h exposure).
Consider `CC(=O)O[C@H]1C(=O)[C@@]2(C)[C@H]([C@H](OC(=O)c3ccccc3)[C@]3(O)C[C@H](OC(=O)[C@H](O)[C@@H](NC(=O)c4ccccc4)c4ccccc4)C(C)=C1C3(C)C)[C@]1(OC(C)=O)CO[C@@H]1C[C@@H]2O` [TAXOL-A.S., Taxol (Paclitaxel), reference compound], for which the results for the “in dilution active up to 1: (calculated on active substance content, A.S.)” value in data set [1] (24 h exposure), in data set [1] (48 h exposure) and in data set [1] (72 h exposure) were 6.4 Mio, 25.6 Mio and 25.6 Mio, respectively. The Proliferation test % in data set [2] (10^-3) is listed as 2.3%; in data set [2] (10^-4), 2.9%; in data set [2] (10^-5), 69.6%; in data set [3] (10^-3), 1.3%; in data set [3] (10^-4) it was 1.6%; in data set [3] (10^-5) it was 7.1%. Besides, the Proliferation test cpm was found to be 552 cpm in data set [2] (10^-3), 672 cpm in data set [2] (10^-4), 679 cpm in data set [3] (10^-3) and 830 cpm in data set [3] (10^-4).
For `CCCCCCCCCCCC(=O)Oc1ccc(-c2oc3cc(OC(=O)CCCCCCCCCCC)cc(OC(=O)CCCCCCCCCCC)c3c(=O)c2OC(=O)CCCCCCCCCCC)c(OC(=O)CCCCCCCCCCC)c1` [MORIN-PENTA-LAURATE], the “in dilution active up to 1: (calculated on active substance content, A.S.)” value is 12.8 Mio in data set [1] (24 h exposure), 100 Mio in data set [1] (48 h exposure) and 100 Mio in data set [1] (72 h exposure). Further, the “in dilution active up to 1: (microemulsion ME 1:100)” value in data set [1] (48 h exposure) and in data set [1] (72 h exposure) was 1 Mio throughout.
`CCCCCCCCCCCC(=O)O[C@H]1C[C@@]2(O)[C@@H](OC(=O)c3ccccc3)[C@@H]3[C@]4(OC(C)=O)CO[C@@H]4C[C@H](OC(=O)CCCCCCCCCCC)[C@@]3(C)C(=O)[C@H](OC(C)=O)C(=C1C)C2(C)C` [BACCATIN III-DI-LAURATE, 7,13-Dilauroylbaccatin-III]: the “in dilution active up to 1: (calculated on active substance content, A.S.)” value in data set [1] (24 h exposure) is listed as 12.8 Mio; in data set [1] (48 h exposure), 12.8 Mio; in data set [1] (72 h exposure), 25.6 Mio. In addition, the Proliferation test % is listed as 1.4% in data set [2] (10^-3); 1.9% in data set [2] (10^-4); 38.3% in data set [2] (10^-5); 1.1% in data set [3] (10^-3); 1.3% in data set [3] (10^-4); 6.1% in data set [3] (10^-5). Also, the Proliferation test cpm in data set [2] (10^-3) is listed as 346 cpm; in data set [2] (10^-4), 455 cpm; in data set [3] (10^-3), 585 cpm; in data set [3] (10^-4), 651 cpm.
In the case of `CCCCCCCCCCCCCCCC(=O)Oc1ccc(-c2oc3cc(OC(=O)CCCCCCCCCCCCCCC)cc(OC(=O)CCCCCCCCCCCCCCC)c3c(=O)c2OC(=O)CCCCCCCCCCCCCCC)c(OC(=O)CCCCCCCCCCCCCCC)c1` [MOREN-PENTA-PALMITATE], the results for the “in dilution active up to 1: (calculated on active substance content, A.S.)” value in data set [1] (24 h exposure), in data set [1] (48 h exposure) and in data set [1] (72 h exposure) were 6.4 Mio, 51.2 Mio and 51.2 Mio, respectively.
As to `CCCCCCCCCCCC(=O)Oc1cc(OC(=O)CCCCCCCCCCC)c2c(=O)cc(-c3ccccc3)oc2c1` [CHRYSIN-DI-LAURATE], the “in dilution active up to 1: (calculated on active substance content, A.S.)” value in data set [1] (24 h exposure) is reported as 12.8 Mio; in data set [1] (48 h exposure), 51.2 Mio; in data set [1] (72 h exposure), 100 Mio. Also, the “in dilution active up to 1: (microemulsion ME 1:100)” value in data set [1] (72 h exposure) came to 1 Mio.
Turning to `C=CCCCCCCCCC(=O)O[C@H]1CC[C@@]2(C)C(=CC=C3[C@@H]4CC[C@H]([C@H](C)/C=C/[C@H](C)C(C)C)[C@@]4(C)CC[C@@H]32)C1` [ERGOSTERYL-10-UNDECENOATE, (3β, 22E)-Ergosta-5,7,22-triene-3-ol-10-undecenoate], the “RESIDUAL HIV TITRE (CCID50)” value in data set [4] (concentrate 1'000 ppm, active substance 10 ppm, mean titre of 2 strains, 3 h, +4° C.) is on record as 25 CCID50. The “inhibition of HIV infectivity” value in data set [4] (pre-treatment with 1%-concentrate) is on record as “somewhat less potent inhibition”.
Turning to `CCCCCCCCCCCC(=O)O[C@H]1CC[C@@]2(C)C(=CC=C3[C@@H]4CC[C@H]([C@H](C)/C=C/[C@H](C)C(C)C)[C@@]4(C)CC[C@@H]32)C1` [C12:0 -ERGO ESTER (ERGOST. LAURATE), (3β, 22E)-Ergosta-5,7,22-triene-3-ol-laurate], the Cell-Lysis result in data set [5] is “Cell-Lysis”. In addition, the “Percent reduction of plaques in VERO cell monolayers” value in data set [6] (dilution 1:10'000) is recorded as 62%; in data set [6] (dilution 1:100'000) it was 0%.
Turning to `C=CCCCCCCCCC(=O)O[C@H]1C[C@@]2(O)[C@@H](OC(=O)c3ccccc3)[C@@H]3[C@]4(OC(C)=O)CO[C@@H]4C[C@H](OC(=O)CCCCCCCCC=C)[C@@]3(C)C(=O)[C@H](OC(C)=O)C(=C1C)C2(C)C` [BACCATIN III-DI-UNDECENOATE, 7,13-Baccatin-III-diundecenoate], the “in dilution active up to 1: (calculated on active substance content, A.S.)” value is reported as 12.8 Mio in data set [1] (24 h exposure), 25.6 Mio in data set [1] (48 h exposure) and 100 Mio in data set [1] (72 h exposure). The “in dilution active up to 1: (microemulsion ME 1:100)” value in data set [1] (72 h exposure) is on record as 1 Mio. The Proliferation test % in data set [2] (10^-3) was 1.2%; in data set [2] (10^-4), 2.8%; in data set [2] (10^-5), 41.7%; in data set [3] (10^-3), 0.9%; in data set [3] (10^-4) it was 1.3%; in data set [3] (10^-5), 9.5%. In addition, the Proliferation test cpm in data set [2] (10^-3) is 293 cpm; in data set [2] (10^-4), 653 cpm; in data set [3] (10^-3), 466 cpm; in data set [3] (10^-4) it was 665 cpm.
Turning to 7-Baccatin III-all trans-retinoate, the results for the “in dilution active up to 1: (calculated on active substance content, A.S.)” value in data set [1] (24 h exposure), in data set [1] (48 h exposure) and in data set [1] (72 h exposure) were 12.8 Mio, 25.6 Mio and 25.6 Mio, respectively. Moreover, the Proliferation test % is 1.1% in data set [2] (10^-3); 1.7% in data set [2] (10^-4); 52.7% in data set [2] (10^-5); 0.8% in data set [3] (10^-3); 1.6% in data set [3] (10^-4); 15.0% in data set [3] (10^-5). Further, the Proliferation test cpm in data set [2] (10^-3) stood at 256 cpm; in data set [2] (10^-4), 412 cpm; in data set [3] (10^-3), 415 cpm; in data set [3] (10^-4) it was 822 cpm.
